Values of other authors in US20220249345A1, “PRODUCT FOR TREATING KERATINOUS FIBERS, CONTAINING SILANES OF SPECIFIC FORMULAE” (Henkel AG & Co. KGaA, priority 2019, published 2022).
Read-outs that look alike come from different tables or passages of the source.

Row | solubility in water (at about 25° C.) | SMILES | solubility in water (25° C.)
1 |  | O=S(=O)([O-])c1ccc(N=Nc2c(O)ccc3ccccc23)cc1.[Na+] [Acid Orange 7, sodium salt of 4-[(2-hydroxy-1-naphthyl)azo]benzene sulphonate] | more than 7 g/L
2 |  | Nc1cc(S(=O)(=O)[O-])cc2cc(S(=O)(=O)[O-])c(N=Nc3ccccc3)c(O)c12.[Na+].[Na+] [Acid Red 33, diantrium salt of 5-amino-4-hydroxy-3-(phenylazo)-naphthalene-2,7-disulphonate] | about 2.5 g/L
3 | highly soluble in water | O=C([O-])C1=NN(c2ccc(S(=O)(=O)[O-])cc2)C(=O)C1N=Nc1ccc(S(=O)(=O)[O-])cc1.[Na+].[Na+].[Na+] (stereo not drawn) [Acid Yellow 23, trisodium salt of 4,5-dihydro-5-oxo-1-(4-sulfophenyl)-4-((4-sulfophenyl)azo)-1H-pyrazole-3-carboxylic acid] | 
